The source of these data is PMC7467771, “Lipophilic Arginine Esters: The Gateway to Preservatives without Side Effects” (Molecular Pharmaceutics, 2020).

Data set [1] can be described thus: octanol/water partition coefficient (log P) by TNBS assay. To be noted: octanol/water mixture 1:1 v/v; mean, n = 3. It counts as physicochemical. As to the method:
Log P of Arg and both Arg-esters were determined using an already described method.[15] Each compound was dissolved in an octanol/water mixture (1:1, v/v). Afterward, octanol and water phases were separated by a high-speed mini centrifuge (Fisher Scientific, Illinois USA), and the concentration of each compound in each phase was determined by the TNBS assay. For this, a 50 μL volume from each phase was diluted 10 times with 0.1 M sodium bicarbonate (pH 8.5) containing 40% (v/v) isopropyl alcohol. After dilution, 250 μL of the TNBS reagent (0.01%, v/v) prepared in 0.1 M sodium bicarbonate (pH 8.5) was added to each sample that was incubated at 37 °C. After 2 h, the reaction was stopped by adding 250 μL of 10% (m/v) SDS and 125 μL of 1 M HCl. The absorbance of each sample was measured at 335 nm using a Spark multifunctional microplate reader (Tecan Austria, GmbH). The logarithm of the octanol/water absorbance ratio was expressed as log P for each sample.

Data set [2] relates to lipase from porcine pancreas. In words: degradation of arginine esters by lipase (pH-stat titration). The format is in vitro ADME. As to conditions: within 3 h, 1 mM ester, pH 6.8, 37 °C. As to the method: Lipase-catalyzed hydrolytic degradation of Arg-OL and Arg-DT esters was carried out using a previously described experimental setup.[16] Digestion medium consisted of 2 mM Tris buffer with 5 mM CaCl2 and 150 mM NaCl. The medium pH was adjusted to 6.8. Lipase solution was freshly prepared before the experiment as follows: 0.5 g of lipase was mixed for 10 min in 10 mL of digestion medium, followed by centrifugation at 12 000 rpm and 4 °C for 15 min. The supernatant was collected for the degradation test and ice-stored until use. For the degradation test, solutions of Arg-OL and Arg-DT were prepared in the concentration of 1 mM in digestion buffer, and the pH was adjusted to 6.8 using 0.5 M NaOH. Thereafter, 2 mL of lipase solution was added to 18 mL of the Arg-surfactant solution to initiate ester degradation under continuous stirring at 37 °C. The ester hydrolysis was reflected by monitoring the drop in pH due to the release of arginine and titrated to keep the pH at 6.8 with the addition of 0.5 M NaOH. The experiment was continued for 3 h. Back-titration was also performed at the end of the experiment by raising the pH to 9, and additional consumption of the NaOH volume reflected the nonionized form of an amino acid. […]

Another data set has as its system Caco-2 cell membrane. Kind of data set: fluorescence anisotropy (DPH), membrane fluidity. As to conditions: DPH-labeled Caco-2 cells. The format is cell-based. On the procedure: To evaluate membrane fluidity by fluorescence spectroscopy, a method described by Aricha et al. was adapted.[17] Caco-2 cells were labeled with fluorescent probe DPH (1,6-diphenyl-1,3,5-hexatriene). For this, a 1 mM solution of DPH was prepared in acetone. A Caco-2 cell monolayer in a 15 mL cell flask after washing with sterile PBS was trypsinized and resuspended in 10 mM HBS (pH 7.4) at a concentration of 2 × 10^5 cells mL^–1. Then a 1 mM DPH solution (10 μL) was added to a Caco-2 cell suspension (5 mL) and kept for incubation at 37 °C in the dark. After 1 h, cells were centrifuged at 588 rpm for 3 min, and solvent was removed to get rid of the free probe. Cells were resuspended in the same volume of HBS. Samples of Arg-surfactants were prepared in HBS in concentrations of 2000, 1000, and 500 μg mL^–1. Then each sample solution was mixed with a DPH-labeled cell suspension in equal volumes and incubated at room temperature in the dark. HBS mixed in an equal volume with the DPH-labeled cell suspension was used as a control. At specific time points, fluorescence polarization data were obtained using an excitation wavelength of 350 nm and an emission wavelength of 420 nm, and anisotropy was calculated using the following equation: [drawing 5] where I∥ and I⊥ are the fluorescence intensities parallel and perpendicular to the direction of the excitation light beam.

Data set [3] deals with Bacillus subtilis ATCC 6633. Kind of data set: disk diffusion method. It counts as cell-based. As to conditions: Bacillus subtilis, ATCC6633, read-out: zones of inhibition. On the procedure:
(§1) Following bacterial strains were used for antimicrobial susceptibility testing: Escherichia coli ATCC 25922, Staphylococcus aureus ATCC 29213, Bacillus subtilis ATCC 6633, and Enterococcus faecalis ATCC 19433, which were obtained from the American Type Culture Collection (ATCC, Virginia, USA).
(§2) The disk diffusion method was used for the initial assessment of the antimicrobial activity of Arg-esters. Mueller Hinton agar (MHA, Biomerieux) medium was prepared according to the manufacturer protocol and poured into Petri dishes. All testing microorganisms were dissolved in saline and set to a 0.5 McFarland standard turbidity. This corresponds to a bacterial concentration of 1.5 × 10^8 colony-forming units per milliliter (CFU mL^–1). The bacterial suspension was then swabbed over solidified MHA Petri dishes ensuring homogeneous distribution. The test solutions of Arg-OL, Arg-DT, BAC, and cetrimide were prepared in water with 10% (v/v) DMSO at a concentration of 10 mg mL^–1. Water with 10% (v/v) DMSO was used as a negative control. The diffusion disks of about 6 mm in diameter were prepared from Whatman filter paper. After immersing disks in the above-prepared test solutions, they were placed on MHA plates already swabbed with different bacteria. After overnight incubation of Petri dishes at 37 °C, clear zones of bacterial growth inhibition around disks were measured.

Data set [4] deals with Enterococcus faecalis ATCC 19433. Kind of data set: disk diffusion method. It counts as cell-based. To be noted: Enterococcus faecalis, ATCC19433, read-out: zones of inhibition. As to the method: as §1, §2
Data set [5] relates to Escherichia coli ATCC 25922. In words: disk diffusion method. It counts as cell-based. As to conditions: Escherichia coli, ATCC25922, read-out: zones of inhibition. As to the method: as §1, §2
The test system of data set [6] is Staphylococcus aureus ATCC 29213. Kind of data set: disk diffusion method. To be noted: Staphylococcus aureus, ATCC29213, read-out: zones of inhibition. The format is cell-based. As to the method: as §1, §2

Structures are written as SMILES. Where only a bound is given, the exact number is not on record here.

On to `CCCCCCCCCCCCC(CCCCCCCCCC)COC(=O)[C@@H](N)CCCNC(=N)N.O=C(O)C(F)(F)F` (some centres unmarked) [Arg-DT, 2-Decyltetradecyl Argininate Trifluoroacetate], for which the logP in data set [1] came out at 0.6. In addition, the “percentage of arginine ester cleaved by lipase” value in data set [2] is 85%. Besides, the changes in anisotropy entry with Caco-2 cell membrane (< 1000 μg mL^–1) is given as “not significant”. The zone of inhibition at 10 µg/mL in data set [3] is 18 mm; in data set [4], 16 mm; in data set [5], 9 mm; in data set [6] it was 16 mm.

For the compound `CCCCCCCCC=CCCCCCCCCOC(=O)[C@@H](N)CCCNC(=N)N.O=C(O)C(F)(F)F` [Arg-OL, Octadec-9-en-1-yl Argininate Trifluoroacetate], the log partition coefficient (logP) in data set [1] was determined as 0.3. The “percentage of arginine ester cleaved by lipase” value in data set [2] is given as 93%. Also, in the data set with Caco-2 cell membrane (within 2 h), the “decrease in the anisotropy value as compared to the control” value was over 30%. The zone of inhibition at 10 µg/mL was found to be 16 mm in data set [3], 18 mm in data set [4], 9 mm in data set [5] and 19 mm in data set [6].
